Measurements as given in PubChem BioAssay (NCI).
Values joined by “and” are separate entries in the source; they are usually repeats but may differ in a detail not shown here. Equal values may be shown once.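 Grown in 96-well plates, cells were treated for 48 hours with each compound at five concentrations. Insufficient inhibition: endpoint recorded as highest concentration tested. At the GI50, growth is halved. TGI denotes the concentration required for complete inhibition of growth.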

What was measured:
Assay in all cases: growth of human tumour cells (NCI), 48 h
[1] = test system: SNB-75 CNS
[2] = test system: SK-MEL-2 melanoma
[3] = test system: DU-145 prostate
[4] = test system: SK-OV-3 ovarian
[5] = test system: HCT-116 colon
[6] = test system: A498 renal
[7] = test system: MCF7 breast
[8] = test system: A549 NSCLC
[9] = test system: SF-295 CNS
[10] = test system: RXF 393 renal
[11] = test system: MDA-MB-231 breast
[12] = test system: SF-268 CNS
[13] = test system: OVCAR-8 ovarian
[14] = test system: SW-620 colon
[15] = test system: MDA-MB-435
[16] = test system: MALME-3M melanoma
[17] = test system: HT29 colon
[18] = test system: SR leukemia
[19] = test system: SF-539 CNS
[20] = test system: NCI-H23 lung
[21] = test system: HOP-92 NSCLC
[22] = test system: NCI-H460 lung
[23] = test system: OVCAR-5 ovarian
[24] = test system: ACHN renal
[25] = test system: MDA-N
[26] = test system: SN12C renal
[27] = test system: CAKI-1 renal
[28] = test system: PC-3 prostate
[29] = test system: TK-10 renal
[30] = test system: HCT-15 colon
[31] = test system: HCC-2998 colon
[32] = test system: UACC-257 melanoma
[33] = test system: KM12 colon
[34] = test system: BT-549 breast
[35] = test system: COLO 205 colon
[36] = test system: IGROV1 ovarian
[37] = test system: LOX IMVI melanoma
[38] = test system: NCI-H226 lung
[39] = test system: EKVX NSCLC
[40] = test system: CCRF-CEM leukemia
[41] = test system: T-47D breast
[42] = test system: MOLT-4 leukemia
[43] = test system: NCI/ADR-RES ovarian
[44] = test system: UO-31 renal
[45] = test system: OVCAR-3 ovarian
[46] = test system: M14 melanoma
[47] = test system: U251 CNS
[48] = test system: HOP-62 NSCLC
[49] = test system: HS 578T breast
[50] = test system: K-562 leukemia
[51] = test system: RPMI-8226 leukemia
[52] = test system: UACC-62 melanoma
[53] = test system: NCI-H522 lung
[54] = test system: SK-MEL-28 melanoma
[55] = test system: SK-MEL-5 melanoma
[56] = test system: 786-0 renal
[57] = test system: SNB-19 CNS
[58] = test system: OVCAR-4 ovarian
[59] = test system: HL-60(TB) leukemia

For `COc1ccc(COC(=O)NCC(=O)NC(C)C(=O)NC(Cc2ccccc2)C(=O)OCc2ccccc2)cc1` (stereo not given), the GI50 [1] was 21.1 µM and 44.6 µM, the TGI [1] was 60.9 µM and 89.2 µM and the GI50 [2] was 35.5 µM and > 100 µM. For the same molecule, the TGI [2] was 83.3 µM and > 100 µM, the GI50 [3] was 31.1 µM and > 100 µM and the TGI [3] was greater than 100 µM. For the same molecule, the GI50 [4] was 22.9 µM and > 100 µM, the TGI [4] was 42.5 µM and > 100 µM and the TGI [5] was greater than 100 µM. The TGI [6] was 38.8 µM and > 100 µM, the TGI [7] was 30.7 µM and 34.9 µM and the GI50 [8] was 18.8 µM and > 100 µM. The TGI [8] was 41.2 µM and > 100 µM, the TGI [9] was 47.8 µM and 39.1 µM and the TGI [10] was 82.2 µM. For the same molecule, the TGI [11] was 46.2 µM and 68.3 µM, the TGI [12] was > 100 µM and 55.2 µM and the TGI [13] was greater than 100 µM. For the same molecule, the TGI [14] was greater than 100 µM, the TGI [15] was 47.3 µM and 71.7 µM and the TGI [16] was 37.6 µM and 92.3 µM. For the same molecule, the TGI [17] was 86.4 µM and 33.1 µM, the TGI [18] was > 100 µM and 51.7 µM and the GI50 [19] was 12.6 µM and 28.7 µM. The TGI [19] was 25.1 µM and > 100 µM, the TGI [20] was greater than 100 µM and the GI50 [21] was 18.2 µM and 40.9 µM. The TGI [21] was 37.8 µM and > 100 µM, the TGI [22] was 22.7 µM and the GI50 [23] was 36.3 µM and > 100 µM. For the same molecule, the TGI [23] was greater than 100 µM, the TGI [24] was 44.5 µM and 36.7 µM and the TGI [25] was > 100 µM and 62.8 µM. The TGI [26] was > 100 µM and 51.9 µM, the TGI [27] was 41.5 µM and 65.7 µM and the GI50 [28] was 20 µM and > 100 µM. The TGI [28] was 47.8 µM and > 100 µM, the GI50 [29] was 39.5 µM and > 100 µM and the TGI [29] was greater than 100 µM. For the same molecule, the TGI [30] was greater than 100 µM, the TGI [31] was 64.3 µM and 37.4 µM and the GI50 [32] was 15.7 µM and > 100 µM. For the same molecule, the TGI [32] was 29.8 µM and > 100 µM, the GI50 [33] was 62.8 µM and 23.9 µM and the TGI [33] was > 100 µM and 46.3 µM. The GI50 [34] was 22.1 µM and > 100 µM, the TGI [34] was 48.1 µM and > 100 µM and the TGI [35] was 80.8 µM and 52.9 µM. The TGI [36] was greater than 100 µM, the TGI [37] was 79.1 µM and 38.8 µM and the TGI [38] was 55.9 µM and 85.6 µM. For the same molecule, the GI50 [39] was 23.4 µM and 48.7 µM, the TGI [39] was 56.6 µM and > 100 µM and the TGI [40] was > 100 µM and 43.9 µM. The TGI [41] was 48.6 µM and 86.2 µM, the GI50 [42] was 8.37 µM and 24.5 µM and the TGI [42] was 55.9 µM and 49.3 µM. The TGI [43] was greater than 100 µM, the GI50 [44] was 23.2 µM and 69.6 µM and the TGI [44] was 44.9 µM and > 100 µM. The TGI [45] was 64.2 µM and 50.7 µM, the GI50 [46] was 18 µM and 37.5 µM and the TGI [46] was 31.8 µM and > 100 µM. The TGI [47] was 44.3 µM and 47.3 µM, the TGI [48] was 54.2 µM and 49.4 µM and the TGI [49] was 70.3 µM and 63.9 µM. The TGI [50] was > 100 µM and 52.6 µM, the TGI [51] was > 100 µM and 57.1 µM and the GI50 [52] was 18.8 µM and > 100 µM. The TGI [52] was 40.2 µM and > 100 µM, the TGI [53] was 29.3 µM and 31.1 µM and the TGI [54] was 39.5 µM and 34.8 µM. For the same molecule, the GI50 [55] was 13.8 µM and 56.3 µM, the TGI [55] was 26.8 µM and > 100 µM and the TGI [56] was 73.1 µM and 36 µM. The GI50 [57] was 21.5 µM and > 100 µM, the TGI [57] was 41.1 µM and > 100 µM and the TGI [58] was 41.2 µM and 95.1 µM. The GI50 [59] was 3.12 µM and 17.7 µM and the TGI [59] was 10.7 µM and 37.8 µM.
`O=C1C=CC(=O)c2c(O)c3c(c(O)c21)C[C@H](O)[C@H](O)[C@@H]3O` showed a TGI [1] of 7.99 µM, a TGI [2] of 3.43 µM and a TGI [3] of 6.87 µM. It also gave a TGI [4] of 33 µM, a TGI [5] of 1.73 µM and a TGI [6] of 13.3 µM. For the same molecule, the TGI [7] was 3.49 µM, the TGI [8] was 9.39 µM and the TGI [9] was 20.3 µM. For the same molecule, the TGI [10] was 3.43 µM, the TGI [11] was 6.08 µM and the TGI [12] was 8.02 µM. For the same molecule, the TGI [13] was 6.59 µM, the TGI [14] was 2.37 µM and the TGI [15] was 3.13 µM. For the same molecule, the TGI [16] was 2.6 µM, the TGI [17] was 5.83 µM and the TGI [18] was greater than 100 µM. For the same molecule, the TGI [19] was 9.16 µM, the TGI [20] was 4.67 µM and the TGI [21] was 2.87 µM. The TGI [22] was 16.8 µM, the TGI [23] was 17.2 µM and the TGI [24] was 8 µM. For the same molecule, the TGI [25] was 2.95 µM, the TGI [26] was 3.82 µM and the TGI [27] was 4.38 µM. It also gave a TGI [28] of 8.34 µM, a TGI [29] of 3.27 µM and a TGI [30] of 7.19 µM. It also gave a TGI [31] of 21.3 µM, a TGI [32] of 2.64 µM and a TGI [33] of 16.8 µM. For the same molecule, the TGI [34] was 2.81 µM, the TGI [35] was 1.12 µM and the TGI [36] was 6.92 µM. The TGI [37] was 4.08 µM, the TGI [38] was 36.7 µM and the TGI [39] was 6.15 µM. The TGI [41] was 4 µM, the TGI [42] was greater than 23.6 µM and the TGI [43] was 8.16 µM. It also gave a TGI [44] greater than 24 µM, a TGI [45] of 3.88 µM and a TGI [46] of 3.86 µM. The TGI [47] was 16.3 µM, the TGI [48] was 13.2 µM and the TGI [49] was 7.87 µM. For the same molecule, the TGI [50] was greater than 21.2 µM, the TGI [51] was 4.85 µM and the TGI [52] was 10.1 µM. The TGI [54] was 5.38 µM, the TGI [55] was 3.18 µM and the TGI [56] was 4.06 µM. It also gave a TGI [57] of 26.9 µM, a TGI [58] of 3.45 µM and a TGI [59] of 2.9 µM.
Molecule `C=CCOC(=O)C1=C(C)NC2=N[C@H](CCCCCCCCC)C[C@@H]3CCC1N23` (stereo not given in full) has a TGI [1] of 83.5 µM, a TGI [2] of 36.5 µM and a TGI [3] of 67.8 µM. For the same molecule, the TGI [4] was 75.2 µM, the TGI [5] was 36 µM and the TGI [7] was 36.5 µM. The TGI [8] was greater than 100 µM, the TGI [9] was greater than 100 µM and the TGI [10] was 36 µM. For the same molecule, the TGI [11] was 41.7 µM, the TGI [12] was 39.9 µM and the TGI [13] was greater than 100 µM. It also gave a TGI [14] greater than 100 µM, a TGI [15] of 44.5 µM and a TGI [16] of 35.7 µM. For the same molecule, the TGI [17] was 72.2 µM, the TGI [18] was greater than 100 µM and the TGI [19] was 38.1 µM. For the same molecule, the TGI [20] was 41.8 µM, the TGI [21] was 38 µM and the TGI [22] was 72.6 µM. It also gave a TGI [23] of 48.2 µM, a TGI [24] of 44.4 µM and a TGI [25] of 38.4 µM. It also gave a TGI [26] of 35.7 µM, a TGI [27] greater than 100 µM and a TGI [28] of 42.1 µM. For the same molecule, the TGI [29] was 39.4 µM, the TGI [30] was 56.2 µM and the TGI [31] was 48.4 µM. For the same molecule, the TGI [32] was 37.1 µM, the TGI [33] was greater than 100 µM and the TGI [34] was 37.6 µM. The TGI [35] was 50.9 µM, the TGI [36] was 49.5 µM and the TGI [37] was 44.9 µM. The TGI [38] was 36.6 µM, the TGI [39] was 53.1 µM and the TGI [40] was greater than 100 µM. For the same molecule, the TGI [41] was 60.2 µM, the TGI [42] was greater than 100 µM and the TGI [43] was 56 µM. For the same molecule, the TGI [44] was 32.5 µM, the TGI [45] was 37.5 µM and the TGI [46] was 37.6 µM. It also gave a TGI [47] of 40.5 µM, a TGI [48] of 79 µM and a TGI [49] of 54.4 µM. For the same molecule, the TGI [50] was greater than 100 µM, the TGI [51] was greater than 100 µM and the TGI [52] was 35.6 µM. It also gave a TGI [53] of 34.7 µM, a TGI [54] of 53.6 µM and a TGI [55] of 34.4 µM. The TGI [56] was 39.3 µM, the TGI [57] was 42 µM and the TGI [58] was 45.9 µM. It also gave a TGI [59] of 69.4 µM.
